Data as given in PMC12472753, “Fused Imidazotriazole-Based Therapeutics: A Multidisciplinary Study Against Diabetes-Linked Enzymes Alpha-Amylase and Alpha-Glucosidase Using In Vitro and In Silico Methods” (Pharmaceuticals, 2025).

Tests used:
[1] = biological target: T1, α-amylase (Sus scrofa, UniProt P00690); assay: Alpha-amylase inhibition assay (DNS method); format: biochemical; details: in vitro, triplicate; read-out: IC50 = α-Amylase µM ± SEM
T1 sequence (P00690 16-511): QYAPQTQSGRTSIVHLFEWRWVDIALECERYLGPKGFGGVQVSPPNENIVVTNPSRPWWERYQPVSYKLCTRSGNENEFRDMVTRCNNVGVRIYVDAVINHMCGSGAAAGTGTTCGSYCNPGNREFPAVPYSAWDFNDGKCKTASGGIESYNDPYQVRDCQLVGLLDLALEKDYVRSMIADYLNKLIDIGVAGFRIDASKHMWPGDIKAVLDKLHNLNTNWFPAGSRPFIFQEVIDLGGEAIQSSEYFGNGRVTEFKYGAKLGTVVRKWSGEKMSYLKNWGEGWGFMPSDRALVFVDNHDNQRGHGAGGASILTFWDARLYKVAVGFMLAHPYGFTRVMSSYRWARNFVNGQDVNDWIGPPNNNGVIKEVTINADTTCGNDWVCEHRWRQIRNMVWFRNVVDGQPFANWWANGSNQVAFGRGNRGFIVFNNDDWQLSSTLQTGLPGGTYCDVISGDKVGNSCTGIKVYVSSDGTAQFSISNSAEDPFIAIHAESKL
Protocol: The in vitro alpha-amylase study was conducted and the enzyme was sourced from Merck (Sigma-Aldrich, Hamburg, Germany). The inhibitory activity of the synthesized compounds against α-amylase was evaluated using a standard protocol with slight modifications [44]. In brief, 250 µL of the test compound (prepared at varying concentrations, 50–250 µg/mL) was mixed with 250 µL of starch solution [1% (w/v)] and 250 µL of α-amylase solution (1 U/mL). The reaction mixture was incubated at 20 °C for 3 min, after which enzymatic activity was terminated by the addition of 500 µL of dinitrosalicylic acid (DNS) color reagent. The mixture was then heated in a boiling water bath at 85 °C for 15 min, cooled to room temperature for 5 min, and diluted with 4.5 mL of distilled water to a final volume of 6.0 mL. Absorbance was measured at 540 nm using a UV-visible spectrophotometer. […] The percentage inhibition was calculated and all experiments were conducted in triplicate.

[2] = biological target: α-glucosidase (Saccharomyces cerevisiae, UniProt P53341); format: biochemical; details: in vitro, triplicate; read-out: IC50 = α-Glucosidase µM ± SEM
α-glucosidase, sequence (P53341 whole entry): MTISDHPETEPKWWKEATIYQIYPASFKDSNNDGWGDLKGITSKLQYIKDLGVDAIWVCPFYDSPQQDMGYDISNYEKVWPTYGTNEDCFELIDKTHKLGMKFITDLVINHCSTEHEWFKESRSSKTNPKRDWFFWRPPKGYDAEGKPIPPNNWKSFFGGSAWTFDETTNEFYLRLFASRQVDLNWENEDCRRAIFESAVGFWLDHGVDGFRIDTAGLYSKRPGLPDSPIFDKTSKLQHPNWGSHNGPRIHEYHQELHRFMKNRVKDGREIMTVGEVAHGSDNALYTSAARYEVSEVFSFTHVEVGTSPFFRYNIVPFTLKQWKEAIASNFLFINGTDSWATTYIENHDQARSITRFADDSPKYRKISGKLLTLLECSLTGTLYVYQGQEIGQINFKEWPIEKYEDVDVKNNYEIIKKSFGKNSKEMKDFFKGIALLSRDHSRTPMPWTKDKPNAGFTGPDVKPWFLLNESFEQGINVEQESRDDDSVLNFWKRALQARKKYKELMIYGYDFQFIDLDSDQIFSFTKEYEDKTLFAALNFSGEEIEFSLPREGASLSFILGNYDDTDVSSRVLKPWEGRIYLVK
Protocol: The in vitro alpha-glucosidase study was conducted and the enzyme was sourced from Merck (Sigma-Aldrich). The α-glucosidase inhibitory activity was determined following a standard microplate-based method [45]. In each well of a 96-well plate, 35 µL of phosphate buffer (pH 6.8), 31 µL of the test compound solution (50–250 µg/mL), and 18 µL of p-nitrophenyl-α-D-glucopyranoside (pNPG, substrate) were added and pre-incubated at 37 °C for 5 min. The reaction was initiated by the addition of 16 µL of α-glucosidase (0.15 U/mL in phosphate buffer), resulting in a total assay volume of 100 µL. After incubation, the reaction was terminated by adding 100 µL of sodium carbonate (200 mM), and absorbance was recorded at 405 nm using a microplate reader. […] The percentage inhibition was calculated according to the following equation: % inhibition=(Abs control − Abs sample)/Abs control×100
All assays were performed in triplicate to ensure reproducibility.

Substance: 5-(2,4-Dihydroxy-5-methylphenyl)-6H-imidazo{1,2-b]{1,2,4]triazole-2-carboxylic acid [Compound 7]
- IC50 [1]: 7.1 ± 0.3 µM
- IC50 [2]: 7.7 ± 0.2 µM
